Measurements from publication PMC10573892, “β-Lactam TRPM8 Antagonists Derived from Phe-Phenylalaninol Conjugates: Structure–Activity Relationships and Antiallodynic Activity” (International Journal of Molecular Sciences, 2023).

Legend:
Format in all cases: cell-based
[1] = target: T1, rat TRPM8 channel (rTRPM8) (Rattus norvegicus, UniProt Q8R455); assay: Ca2+ microfluorimetry, menthol-induced Ca2+ entry in HEK293 cells overexpressing rTRPM8; settings: Table 3; rTRPM8, HEK293, activation by 100 µM menthol
T1 construct: expressed in transfected cells
Experimental: The diastereomeric 1,4,4-trisubstitutes β-lactams were evaluated as modulators of the TRPM8 channel by calcium microfluorimetry assays. These assays use a Human Embryonic Kidney 293 (HEK293) cell line that stably overexpressed rat TRPM8 channel (rTRPM8). […] Three separated experiments in triplicate were used.
The initial biological evaluation of this series of 1,3,4,4-tetrasubstituted β-lactams was performed by calcium microfluorimetry assays using the indicated HEK293 cell line overexpressing rTRPM8 channels.
(§1) Calcium fluorometry, Patch-Clamp assays and in vivo experiments were performed using the methodology previously described for TRPM8 [35] or TRPM3 [61]. In the Patch -Clamp experiments, the intracellular pipette solution contained (in mM) 140 KCl, 5 EGTA, and 10 mM HEPES, adjusted to pH 7.2 with KOH, and the extracellular solution contained (in mM) 140 NaCl, 2 CaCl2, 1 MgCl2, 10 D-glucose and 10 HEPES, adjusted to pH 7.4 with NaOH. Selectivity against TRPV1, TRPV3, TRPA1 and ASIC3 was subcontracted to Eurofins-CEREP or Eurofins-PANLABS (see ref. [35] for more details).

rTRPM8 = target: T2, rTRPM8 (Rattus norvegicus, UniProt Q8R455); assay: Patch-Clamp electrophysiology on single HEK293 cells expressing rat TRPM8; settings: activation by 100 µM menthol; holding voltage −60 mV
T2 construct: expressed in transfected cells
Source text: A recent research study using Patch-Clamp, among other techniques, established that menthol occupies a cavity within the TRPM8 S1–S4 transmembrane helix, with the OH group forming an H-bond with the δ-NH of R842 residue, and Van der Waals interactions among the methyl groups of the ^iPr moiety and residues I846 and L843 [41].
This is evident by a negligible current at negative potentials and a linear intensification of the ohmic current at positive voltages. When applying compound 34 at a concentration of […], a noticeable reduction in menthol-induced activity at depolarizing voltages was observed (indicated by the red line) compared to menthol alone. Dose–response relationships for both tested compounds were established through triplicate experiments at various concentrations, applying a holding voltage of −60 mV (as shown in Figure 2B).
as §1
Figure 2 Compound 34 blocks TRPM8-mediated responses evoked by menthol in rTRPM8-expressing HEK293 cells. (A) IV curves obtained after exposure to vehicle solution (green trace), 100 µM menthol (blue trace) and 100 µM menthol + 10 µM 34 (red trace). Peak current data were expressed as pA/pF (to allow comparison among different size cells). Each point is the mean ± SEM of n = 15. (B) Concentration/response curves for rTRPM8 current blockade by 34 at a holding voltage of −60 mV. […]

hTRPV1 = target: T3, hTRPV1 (Homo sapiens, UniProt Q8NER1); assay: TRPV1 channel Ca2+ microfluorimetry (capsaicin 30 nM)
T3 construct: Eurofins-CEREP or Eurofins-PANLABS (contract assay)
Source text: (§2) The effects of compound 34 have been evaluated on different ion channels and receptors implicated in pain-related processes to assess the selectivity for TRPM8 channels. First, some TRP channels that play a role in temperature integration and nociception were selected, including hTRPV1, hTRPV3, hTRPA1 and TRPM3. Additionally, the evaluation encompassed the hASIC3 channel with widespread distribution within the peripheral nervous system and contributions to the excitability of primary sensory neurons. In each instance, the compound was subjected to evaluation at a consistent concentration of 10 µM.
as §1

hTRPV3 = target: T4, hTRPV3 (Homo sapiens, UniProt Q8NET8); assay: TRPV3 channel Ca2+ microfluorimetry (2-APB 30 μM); settings: agonist 2-APB 30 μM
T4 construct: Eurofins-CEREP or Eurofins-PANLABS (contract assay)
T4 sequence (Q8NET8 1-790): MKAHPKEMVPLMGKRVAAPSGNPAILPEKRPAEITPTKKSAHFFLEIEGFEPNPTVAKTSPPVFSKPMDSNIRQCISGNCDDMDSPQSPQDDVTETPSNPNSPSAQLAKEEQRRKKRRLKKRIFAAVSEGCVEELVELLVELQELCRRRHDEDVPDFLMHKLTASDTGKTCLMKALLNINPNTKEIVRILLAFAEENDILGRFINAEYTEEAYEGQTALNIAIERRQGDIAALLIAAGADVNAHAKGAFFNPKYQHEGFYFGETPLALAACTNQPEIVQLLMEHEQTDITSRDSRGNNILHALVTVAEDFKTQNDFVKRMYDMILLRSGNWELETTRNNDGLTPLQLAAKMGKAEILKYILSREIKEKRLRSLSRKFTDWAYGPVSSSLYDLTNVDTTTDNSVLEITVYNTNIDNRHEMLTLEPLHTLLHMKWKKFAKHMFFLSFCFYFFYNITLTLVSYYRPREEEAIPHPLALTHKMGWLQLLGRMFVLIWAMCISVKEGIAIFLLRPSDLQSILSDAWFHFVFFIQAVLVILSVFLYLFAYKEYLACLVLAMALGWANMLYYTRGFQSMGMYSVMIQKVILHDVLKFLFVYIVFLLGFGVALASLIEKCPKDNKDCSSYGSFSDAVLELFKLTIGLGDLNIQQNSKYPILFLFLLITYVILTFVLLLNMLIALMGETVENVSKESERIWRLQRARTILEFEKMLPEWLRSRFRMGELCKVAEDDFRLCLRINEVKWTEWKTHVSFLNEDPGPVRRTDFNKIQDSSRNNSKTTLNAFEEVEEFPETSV
Source text: as §2, §1

hASIC3 channel = target: T5, hASIC3 channel (Homo sapiens, UniProt Q9UHC3); assay: ASIC3 channel functional assay (buffer pH 5.5)
T5 construct: Eurofins-CEREP or Eurofins-PANLABS (contract assay)
T5 sequence (Q9UHC3 1-531): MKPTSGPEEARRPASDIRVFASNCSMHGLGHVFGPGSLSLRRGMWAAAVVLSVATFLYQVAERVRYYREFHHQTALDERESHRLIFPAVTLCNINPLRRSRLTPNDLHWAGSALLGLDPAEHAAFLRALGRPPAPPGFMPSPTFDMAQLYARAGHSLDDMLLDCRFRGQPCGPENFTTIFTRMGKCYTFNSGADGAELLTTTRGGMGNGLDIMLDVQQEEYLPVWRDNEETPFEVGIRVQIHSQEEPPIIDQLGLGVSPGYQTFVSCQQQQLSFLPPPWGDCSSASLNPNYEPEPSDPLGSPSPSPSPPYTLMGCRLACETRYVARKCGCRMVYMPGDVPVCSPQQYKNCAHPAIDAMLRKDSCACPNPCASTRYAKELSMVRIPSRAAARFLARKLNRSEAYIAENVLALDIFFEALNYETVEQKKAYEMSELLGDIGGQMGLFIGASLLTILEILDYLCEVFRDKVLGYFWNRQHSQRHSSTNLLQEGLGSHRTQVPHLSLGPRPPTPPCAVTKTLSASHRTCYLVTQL
Source text: as §2, §1

T3 sequence (Q8NER1 whole entry): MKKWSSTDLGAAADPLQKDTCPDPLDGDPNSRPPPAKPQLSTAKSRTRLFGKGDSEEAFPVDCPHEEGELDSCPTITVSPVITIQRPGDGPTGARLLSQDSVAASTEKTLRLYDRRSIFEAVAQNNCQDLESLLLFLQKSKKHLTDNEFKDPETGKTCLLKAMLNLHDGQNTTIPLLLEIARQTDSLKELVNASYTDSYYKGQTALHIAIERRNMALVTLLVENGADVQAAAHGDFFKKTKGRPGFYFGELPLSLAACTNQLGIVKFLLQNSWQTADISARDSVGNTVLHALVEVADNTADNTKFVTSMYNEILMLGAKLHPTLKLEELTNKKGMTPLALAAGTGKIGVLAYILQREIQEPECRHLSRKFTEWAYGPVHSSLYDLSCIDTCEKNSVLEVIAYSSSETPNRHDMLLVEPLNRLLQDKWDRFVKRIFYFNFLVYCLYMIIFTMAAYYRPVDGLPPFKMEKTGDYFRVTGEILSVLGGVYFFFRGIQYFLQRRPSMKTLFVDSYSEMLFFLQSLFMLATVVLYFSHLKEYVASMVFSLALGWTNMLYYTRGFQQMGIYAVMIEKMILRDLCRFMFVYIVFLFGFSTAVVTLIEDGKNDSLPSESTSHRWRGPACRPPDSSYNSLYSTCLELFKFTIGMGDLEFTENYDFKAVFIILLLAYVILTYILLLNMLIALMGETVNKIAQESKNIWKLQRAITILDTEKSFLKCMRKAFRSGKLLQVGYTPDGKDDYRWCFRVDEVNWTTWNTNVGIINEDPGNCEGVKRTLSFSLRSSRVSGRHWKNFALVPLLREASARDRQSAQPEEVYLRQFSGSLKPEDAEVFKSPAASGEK
T2 sequence (Q8R455 whole entry): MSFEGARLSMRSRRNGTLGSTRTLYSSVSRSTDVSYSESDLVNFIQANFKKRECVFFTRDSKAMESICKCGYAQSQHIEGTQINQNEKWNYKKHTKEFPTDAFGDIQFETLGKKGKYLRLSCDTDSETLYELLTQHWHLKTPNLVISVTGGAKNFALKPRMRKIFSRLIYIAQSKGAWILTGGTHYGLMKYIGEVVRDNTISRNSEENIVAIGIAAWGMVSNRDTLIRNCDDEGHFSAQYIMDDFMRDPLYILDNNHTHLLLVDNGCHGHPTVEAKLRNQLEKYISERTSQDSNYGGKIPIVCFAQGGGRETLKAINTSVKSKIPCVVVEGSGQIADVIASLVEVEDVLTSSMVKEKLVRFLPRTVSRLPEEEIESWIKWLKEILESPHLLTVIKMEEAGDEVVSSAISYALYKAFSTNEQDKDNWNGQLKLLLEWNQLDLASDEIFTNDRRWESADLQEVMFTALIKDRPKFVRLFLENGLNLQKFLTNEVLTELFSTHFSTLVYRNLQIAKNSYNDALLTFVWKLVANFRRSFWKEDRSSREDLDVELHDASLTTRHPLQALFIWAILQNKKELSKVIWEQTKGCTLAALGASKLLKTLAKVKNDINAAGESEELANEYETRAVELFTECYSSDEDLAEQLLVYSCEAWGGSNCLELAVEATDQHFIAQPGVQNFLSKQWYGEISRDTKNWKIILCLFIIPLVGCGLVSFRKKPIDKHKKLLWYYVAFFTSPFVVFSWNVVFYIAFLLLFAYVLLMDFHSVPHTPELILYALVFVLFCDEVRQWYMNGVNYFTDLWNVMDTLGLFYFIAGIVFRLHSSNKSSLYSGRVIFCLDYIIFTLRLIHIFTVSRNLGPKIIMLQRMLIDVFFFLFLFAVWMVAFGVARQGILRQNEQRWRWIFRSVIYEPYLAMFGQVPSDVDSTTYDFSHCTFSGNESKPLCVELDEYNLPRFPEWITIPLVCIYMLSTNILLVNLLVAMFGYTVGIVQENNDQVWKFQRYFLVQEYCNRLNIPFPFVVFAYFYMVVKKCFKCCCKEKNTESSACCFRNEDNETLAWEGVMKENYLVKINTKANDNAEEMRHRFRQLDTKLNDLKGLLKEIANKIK
T1 sequence (Q8R455 whole entry): as above

IC50 [1]: 300 nM | IC50 (rTRPM8): 160 nM | activation on the TRPV1 channel (hTRPV1; 10 µM): did not show activation | inhibition at 10 µM (hTRPV1; 10 μM, agonist capsaicin 30 nM): 8.9 ± 2.9% | inhibition at 10 µM (hTRPV3): 17.3 ± 5.7% | inhibition at 10 µM (hASIC3 channel): 2.2 ± 9.6%
Structure (SMILES): CC(C)CNC(=O)[C@]1(Cc2ccccc2)[C@H](C)C(=O)N1C[C@H](Cc1ccccc1)N(Cc1ccccc1)Cc1ccccc1 [Compound 34, 4S-Benzyl-4-[N-(iso-butyl)-carbamoyl]-3S-methyl-1-[(2′S-dibenzylamino-3′-phenyl)prop-1′-yl]-2-oxoazetidine]
